# Laboratory results from BindingDB's records for doi:10.1021/jm801583j (Bristol-Myers Squibb, 2009).
# Biological target: T1, Androgen receptor (Homo sapiens, UniProt P10275)
# T1 sequence (P10275 whole entry): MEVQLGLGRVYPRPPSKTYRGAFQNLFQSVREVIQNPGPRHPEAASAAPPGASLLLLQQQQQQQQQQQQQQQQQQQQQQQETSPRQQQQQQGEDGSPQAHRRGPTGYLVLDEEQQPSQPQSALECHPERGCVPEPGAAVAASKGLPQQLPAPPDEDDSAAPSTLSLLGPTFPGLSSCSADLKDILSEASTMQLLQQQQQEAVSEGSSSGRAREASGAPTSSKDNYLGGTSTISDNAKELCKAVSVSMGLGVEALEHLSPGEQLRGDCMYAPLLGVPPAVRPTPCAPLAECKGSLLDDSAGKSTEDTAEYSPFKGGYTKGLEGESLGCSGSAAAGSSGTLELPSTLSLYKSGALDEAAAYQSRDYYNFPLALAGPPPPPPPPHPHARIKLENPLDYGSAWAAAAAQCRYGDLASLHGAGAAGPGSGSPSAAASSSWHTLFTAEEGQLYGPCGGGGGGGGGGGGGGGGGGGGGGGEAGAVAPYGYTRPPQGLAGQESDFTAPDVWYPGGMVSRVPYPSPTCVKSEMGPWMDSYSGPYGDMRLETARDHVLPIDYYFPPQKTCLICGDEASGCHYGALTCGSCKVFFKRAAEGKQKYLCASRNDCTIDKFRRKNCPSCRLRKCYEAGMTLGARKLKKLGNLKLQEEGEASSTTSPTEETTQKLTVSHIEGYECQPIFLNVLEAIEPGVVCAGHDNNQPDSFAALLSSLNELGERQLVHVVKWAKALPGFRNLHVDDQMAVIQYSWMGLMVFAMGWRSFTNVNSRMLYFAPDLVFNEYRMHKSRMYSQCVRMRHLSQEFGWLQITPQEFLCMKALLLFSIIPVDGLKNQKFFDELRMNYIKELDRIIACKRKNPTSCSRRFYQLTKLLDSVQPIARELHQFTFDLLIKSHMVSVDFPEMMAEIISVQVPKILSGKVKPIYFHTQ
# Test: Receptor Binding Assay (Ki) and Transactivation Assay (EC50)
# Settings: pH 7.6; 22 °C
# Description: Binding assays were conducted by incubating test compound at various concentrations with [3H]DHT with human cancer epithelial breast cell lines MDAMB-45. IC50 value was obtained from dose-response displacement curves. The inhibition constant (Ki) was calculated from IC50 value by the Cheng and Prusoff equation. EC50 value was obtained from functional transactivation assay, which was conducted to assess the potency and efficacy of agonist/antagonist in stably transfected mouse myoblast C2C12 cell line utilizing a luciferase reporter.
SMILES,EC50,Ki
"Cc1c(N2/C(=N/C#N)N3CC[C@H](O)[C@H]3[C@@H]2C)ccc(C#N)c1Cl [cyanoguanidine, 15]",1110 nM,17 nM
"Cc1c(/N=C2\O[C@H](C(C)C)[C@@H]3[C@H](O)CCN23)ccc(C#N)c1Cl [oxazolidin-2-imine, 6g]",3.7 nM,0.7 nM
